{
  "source": "paper PMC8167858",
  "about": "“Crystal structure of a novel homodimeric L‐ribulose 3‐epimerase from Methylomonus sp” (FEBS Open Bio, 2021)",
  "key": {"[1]": {"target": "T1, his_MetLRE (Methylomonas sp. DH-1, UniProt A0A172U6X0)", "T1 construct": "gene AYM39_05640; full length 286 aa, N-terminal His-tag from pET15b (kept), E. coli BL21(DE3), homodimer", "T1 sequence (A0A172U6X0 1-286)": "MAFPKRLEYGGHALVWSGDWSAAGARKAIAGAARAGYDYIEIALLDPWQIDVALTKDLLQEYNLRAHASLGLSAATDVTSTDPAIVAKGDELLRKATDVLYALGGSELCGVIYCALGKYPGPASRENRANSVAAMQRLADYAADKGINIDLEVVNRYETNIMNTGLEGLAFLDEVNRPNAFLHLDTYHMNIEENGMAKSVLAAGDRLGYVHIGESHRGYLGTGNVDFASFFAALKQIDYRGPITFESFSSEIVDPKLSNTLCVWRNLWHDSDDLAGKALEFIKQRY", "experiment": "X-ray crystal structure, […] Å", "format": "binding", "details": "0.1 M HEPES pH 7.5, PEG 8000, 8% ethylene glycol"}, "[2]": {"target": "T2, MetLRE (MetLRE_his) (Methylomonas sp. DH-1, UniProt A0A172U6X0)", "T2 construct": "gene AYM39_05640", "T2 sequence (A0A172U6X0 1-286)": "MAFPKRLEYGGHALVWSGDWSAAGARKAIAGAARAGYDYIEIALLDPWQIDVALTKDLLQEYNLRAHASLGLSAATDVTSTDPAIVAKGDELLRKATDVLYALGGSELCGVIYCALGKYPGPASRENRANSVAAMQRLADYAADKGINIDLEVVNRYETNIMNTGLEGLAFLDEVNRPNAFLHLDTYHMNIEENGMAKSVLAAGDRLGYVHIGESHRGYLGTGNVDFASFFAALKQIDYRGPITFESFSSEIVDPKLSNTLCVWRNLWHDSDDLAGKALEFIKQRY", "experiment": "thermal shift assay (SYPRO Orange)", "format": "binding", "details": "melting temperature, not a shift: reference with Mn alone Tm1_Mn 72.5 ± 0.03 °C; 4 mM D-allulose, 0.8 mM MnCl2, 40 mM Tris/HCl pH 7.6; two-step unfolding, first transition", "source_text": "thermal shift assay (SYPRO Orange) on MetLRE (MetLRE_his) | in the presence of Mn and D‐allulose (cyan line)"}, "[3]": {"target": "T3, his_MetLRElong2 (Methylomonas sp. DH-1, UniProt A0A172U6X0, Y9I/Y37F/INS286TAIKTIELH/Y286L, form not given)", "T3 construct": "gene AYM39_05640; full length with Y9I, Y37F, Y286L and nine extra residues TAIKTIELH added after residue 286 at the C terminus; N-terminal His-tag from pET15b (kept), E. coli BL21(DE3), homodimer", "experiment": "X-ray crystal structure, […] Å", "format": "binding", "details": "0.1 M HEPES pH 7.5, PEG 8000, 8% ethylene glycol"}, "[4]": {"target": "T2, MetLRE (MetLRE_his)", "experiment": "X-ray crystal structure, […] Å", "format": "binding", "details": "crystal soaked in 15% (w/v) D-fructose; catalytic site with Mn2+; second site: beta-D-fructopyranose on surface near C terminus of Mol-A"}, "[5]": {"target": "T2, MetLRE (MetLRE_his)", "experiment": "X-ray crystal structure, […] Å", "format": "binding"}, "[6]": {"target": "the molecule itself", "experiment": "crystal structure; his_MetLRE (with D-allulose) and his_MetLRElong2 (with D-fructose); reservoir 0.1 M HEPES pH 7.5, 10% PEG 8000, 8% ethylene glycol; space group P1, six and eight molecules in an asymmetric unit; symmetry operation and PISA analysis"}, "[7]": {"substrate": "O=C(CO)[C@@H](O)[C@@H](O)CO", "experiment": "epimerization, product by HPLC", "format": "biochemical, Methylomonas sp. DH-1", "details": "50 mM Tris/HCl pH 7.5, 1 mM MnCl2, 70 °C (conditions of the specificity assay)"}, "[8]": {"target": "the molecule itself", "experiment": "crystal structure; MetLRE_his crystals, alone and soaked with D-fructose, D-allulose or L-tagatose; reservoir 0.2 M MgCl2, 0.1 M Tris/HCl pH 8.5, 25% PEG3350, 293 K; two molecules in an asymmetric unit"}},
  "data": [
    {"molecule": "OCC1(O)OC[C@@H](O)[C@@H](O)[C@H]1O", "note": "(stereo partly drawn) [D-allulose]", "values": [
      {"measurement": "X-ray crystal structure, 2.05 Å", "setting": "[1]", "result": "His_MetLRE in complex with D‐allulose was obtained in the triclinic space group P1"},
      {"measurement": "Tm1_MnA", "setting": "[2]", "result": "78.5 ± 0.1", "unit": "°C"}
    ]},
    {"molecule": "OCC1(O)OC[C@@H](O)[C@@H](O)[C@@H]1O", "note": "(stereo partly drawn) [D-fructose]", "values": [
      {"measurement": "X-ray crystal structure, 1.58 Å", "setting": "[3]", "result": "the crystal structure of his_MetLRElong2 in complex with D‐fructose was determined"},
      {"measurement": "X-ray crystal structure, 1.80 Å", "setting": "[4]", "result": "MetLRE_his in complex with D‐fructose was crystallized in the orthorhombic space group"}
    ]},
    {"molecule": "OCC1(O)OC[C@H](O)[C@@H](O)[C@@H]1O", "note": "(stereo partly drawn) [L-sorbose]", "values": [
      {"measurement": "X-ray crystal structure, 1.70 Å", "setting": "[5]; formed from soaked L-tagatose in crystal, catalytic site of Mol-A with Mn2+", "result": "L‐sorbose (C3 epimer of L‐tagatose) was bound in the catalytic site"}
    ]},
    {"molecule": "OCC1(O)OC[C@H](O)[C@@H](O)[C@H]1O", "note": "(stereo partly drawn) [L-tagatose]", "values": [
      {"measurement": "X-ray crystal structure, 1.70 Å", "setting": "[5]; crystal soaked in 15% (w/v) L-tagatose, catalytic site of Mol-B with Mn2+, second site: alpha-L-tagatopyranose on surface of Mol-B", "result": "The bound L‐tagatose was found in the catalytic site of Mol‐B"}
    ]},
    {"molecule": "N-terminal His-tagged MetLRElong2 (his_MetLRE with nine additional residues TAIKTIELH at the C terminus and three mutations Y9I, Y37F, Y286L) (enzyme, Methylomonas sp. DH-1, L-ribulose 3-epimerase from Methylomonas sp; DH-1, NCBI WP_064020855.1, 286 a.a., with three mutations; nine additional residues at the C terminus, chosen on the tetramer form of AgDAE; source: E. coli BL21(DE3) (pET15b, plasmid pETMetLRElong2), purified (HisTrap HP); not shown: His tag, N-terminal, kept) MAFPKRLEIGGHALVWSGDWSAAGARKAIAGAARAGFDYIEIALLDPWQIDVALTKDLLQEYNLRAHASLGLSAATDVTSTDPAIVAKGDELLRKATDVLYALGGSELCGVIYCALGKYPGPASRENRANSVAAMQRLADYAADKGINIDLEVVNRYETNIMNTGLEGLAFLDEVNRPNAFLHLDTYHMNIEENGMAKSVLAAGDRLGYVHIGESHRGYLGTGNVDFASFFAALKQIDYRGPITFESFSSEIVDPKLSNTLCVWRNLWHDSDDLAGKALEFIKQRLTAIKTIELH", "values": [
      {"measurement": "stoichiometry N", "setting": "[6]", "result": 2}
    ]},
    {"molecule": "MetLRE (MetLRE_his) (Methylomonas sp. DH-1) (protein) MAFPKRLEYGGHALVWSGDWSAAGARKAIAGAARAGYDYIEIALLDPWQIDVALTKDLLQEYNLRAHASLGLSAATDVTSTDPAIVAKGDELLRKATDVLYALGGSELCGVIYCALGKYPGPASRENRANSVAAMQRLADYAADKGINIDLEVVNRYETNIMNTGLEGLAFLDEVNRPNAFLHLDTYHMNIEENGMAKSVLAAGDRLGYVHIGESHRGYLGTGNVDFASFFAALKQIDYRGPITFESFSSEIVDPKLSNTLCVWRNLWHDSDDLAGKALEFIKQRY", "values": [
      {"measurement": "Km", "setting": "[7]", "result": "22.4 ± 3.4", "unit": "mM"},
      {"measurement": "kcat", "setting": "[7]", "result": "82.05 ± 5.77", "unit": "s⁻¹"}
    ]},
    {"molecule": "N-terminal His-tagged L-ribulose 3-epimerase from Methylomonas sp. DH-1 (his_MetLRE) (enzyme, UniProt A0A172U6X0 1-286, looked up, L-ribulose 3-epimerase from Methylomonas sp; DH-1, NCBI WP_064020855.1, 286 a.a; primers from the start codon to the stop codon; N-terminal tag and additional residues come from pET15b; source: E. coli BL21(DE3) (pET15b, plasmid pETMetLRE), purified (HisTrap HP); not shown: His tag, N-terminal, kept) MAFPKRLEYGGHALVWSGDWSAAGARKAIAGAARAGYDYIEIALLDPWQIDVALTKDLLQEYNLRAHASLGLSAATDVTSTDPAIVAKGDELLRKATDVLYALGGSELCGVIYCALGKYPGPASRENRANSVAAMQRLADYAADKGINIDLEVVNRYETNIMNTGLEGLAFLDEVNRPNAFLHLDTYHMNIEENGMAKSVLAAGDRLGYVHIGESHRGYLGTGNVDFASFFAALKQIDYRGPITFESFSSEIVDPKLSNTLCVWRNLWHDSDDLAGKALEFIKQRY", "values": [
      {"measurement": "stoichiometry N", "setting": "[6]", "result": 2}
    ]},
    {"molecule": "C-terminal His-tagged L-ribulose 3-epimerase from Methylomonas sp. DH-1 (MetLRE_his) (enzyme, UniProt A0A172U6X0 1-286, looked up, L-ribulose 3-epimerase (putative sugar isomerase/epimerase) from Methylomonas sp; DH-1, NCBI WP_064020855.1, 286 a.a; synthesized gene amplified from the start codon to the last codon (Y286), then a linker beginning at Gly287 and the His tag; Linker and tag follow Y286: Gly287 and Ser288 are in the linker; also called putative sugar isomerase/epimerase; source: E. coli JM109 (pQE60, plasmid …)) MAFPKRLEYGGHALVWSGDWSAAGARKAIAGAARAGYDYIEIALLDPWQIDVALTKDLLQEYNLRAHASLGLSAATDVTSTDPAIVAKGDELLRKATDVLYALGGSELCGVIYCALGKYPGPASRENRANSVAAMQRLADYAADKGINIDLEVVNRYETNIMNTGLEGLAFLDEVNRPNAFLHLDTYHMNIEENGMAKSVLAAGDRLGYVHIGESHRGYLGTGNVDFASFFAALKQIDYRGPITFESFSSEIVDPKLSNTLCVWRNLWHDSDDLAGKALEFIKQRY", "values": [
      {"measurement": "stoichiometry N", "setting": "[8]", "result": 2}
    ]}
  ]
}
